Experimental findings from US8603528B2, “Compositions and method for the reduction of post-operative pain” (ABYRX, Inc., priority 2004, dated 2013) are described below.

A short description of this series: Evaluation of elution rates of analgesic from a 0.5 gm composition button in phosphate buffer, HPLC-UV. It counts as physicochemical. On the procedure:
The surface area exposed to the buffer is about 0.785 sq. cm. One cc aliquots of the buffer solution are taken over a three day period, every 2 hours during business hours of day one, then several times on each of days two and three. […] The same procedure was followed for measurement of the elution of bupivacaine free base and hydrochloride.

“Also recorded” adds a separate entry of the source.

With `CCCCCCCCCCCC(=O)OCC` [ethyl laurate], the “effect of the added material on the elution rate of the anesthetic from the putty” value is “retard the elution”.

In the case of `CCN(CC)CC(=O)Nc1c(C)cccc1C` [lidocaine free base, lidocaine, reference compound], the “period over which the free base of lidocaine is eluted” value (liquid component of the putty changed from triethyl citrate to Pluronic L-35 and tocopheryl acetate) is given as “eight”. Moreover, the “period over which the free base of lidocaine is released” value (putty-like composition comprising lidocaine free base, calcium stearate and liquid triethyl citrate) is “three”. `CCCCCCCCCCCCOC(C)=O` [lauryl acetate]: the “effect of the added material on the elution rate of the anesthetic from the putty” value is reported as “retard the elution”. Same read-out and setting: under `CC(=O)Oc1c(C)c(C)c2c(c1C)CCC(C)(CCC[C@H](C)CCC[C@H](C)CCCC(C)C)O2` (some centres unmarked) [tocopheryl acetate] stands “slow down the elution rate; also recorded: reduces the elution rate; also recorded: retard the elution”.
